Assay results taken from patent US20100303896A1, “5BETA, 14BETA-ANDROSTANE DERIVATIVES USEFUL FOR THE TREATMENT OF RESTENOSIS AFTER ANGIOPLASTIC OR ENDOARTHERECTOMY AND DISEASES DUE TO ORGAN FIBROSIS” (SIGMA-TAU INDUSTRIE FARMACEUTICHE RIUNITE S.P.A., priority 2007, published 2010).
Values joined by “and” are separate entries in the source; they are usually repeats but may differ in a detail not shown here. Identical values can stand only once. “Also recorded” adds a separate entry of the source.

Columns and labels:
Assay type in all cases: in vivo, rat
[1] = test system: MHS rats with CCl4-induced liver fibrosis; test: CCl4-induced liver fibrosis: hydroxyproline liver content
From the text: (§1) To test the activity of the compound of the invention for the prevention and treatment of organ fibrosis, spontaneous hypertensive MHS rats with genetic arterial hypertension (Bianchi G., Barber B. R., Torielli L., Ferrari P. The Milan hypertensive strain of rats. Genetic Model of Hypertension. 1994; 22: 457-460) were used. MHS rats are available at Prassis Research Institute, Sigma-tau, Italy.
Liver fibrosis was induced by CCl4 oral administration as described in J. Hepatol. 1999; 30: 621-631, with minor modifications: 0.375 ml/kg of CCl4 dissolved in olive oil was administered three times per week for three weeks by oral gavage to rats starting from the 7th week after weaning. Control rats received only the vehicle (olive oil). Rostafuroxin treatment started 7 weeks before the induction of liver fibrosis by CCl4 administration (pretreatment) and was continued during the CCl4 treatment for three weeks. Rostafuroxin was orally administered at 1 mg/kg/day, suspended in Methocel (0.5%). A total of twenty four MHS rats of 25 days of age (weaning) were subdivided in three groups of 8 rats each: the first group, considered as negative control for liver fibrosis induction (Ctr.), was orally treated with the Rostafuroxin vehicle (Methocel 0.5%) along the entire period (10 weeks) and received the olive oil as vehicle of CCl4 at the 7th week after weaning for three weeks; the second group, considered as positive control for liver fibrosis (Ctr. LF), was orally treated with the Rostafuroxin vehicle (Methocel 0.5%) along the entire period (10 weeks) and received CCl4 at the 7th week after weaning for three weeks; the third group, Rostafuroxin treated with liver fibrosis (RLF), received Rostafuroxin at 1 mg/kg along the entire period (10 weeks) and received CCl4 at the 7th week after weaning for three weeks. […]
Hydroxyproline liver content was determined as described in Anal. Biochem. 1981; 112: 70-75, with slight modifications.
Liver tissue (0.4 g) was homogenized in 3 ml 6 N HCl and hydrolyzed at 110° C. for 24 h. […] After cooling, the absorbance was measured at 558 nm (Jasco V-530).

[2] = test system: MHS rats with CCl4-induced liver fibrosis; test: CCl4-induced liver fibrosis: body and organ weights
From the text: as §1
(§2) Liver fibrosis was induced by CCl4 oral administration as described in J. Hepatol. 1999; 30: 621-631, with minor modifications: 0.375 ml/kg of CCl4 dissolved in olive oil was administered three times per week for three weeks by oral gavage to rats starting from the 7th week after weaning. Control rats received only the vehicle (olive oil). Rostafuroxin treatment started 7 weeks before the induction of liver fibrosis by CCl4 administration (pretreatment) and was continued during the CCl4 treatment for three weeks. Rostafuroxin was orally administered at 1 mg/kg/day, suspended in Methocel (0.5%). A total of twenty four MHS rats of 25 days of age (weaning) were subdivided in three groups of 8 rats each: the first group, considered as negative control for liver fibrosis induction (Ctr.), was orally treated with the Rostafuroxin vehicle (Methocel 0.5%) along the entire period (10 weeks) and received the olive oil as vehicle of CCl4 at the 7th week after weaning for three weeks; the second group, considered as positive control for liver fibrosis (Ctr. LF), was orally treated with the Rostafuroxin vehicle (Methocel 0.5%) along the entire period (10 weeks) and received CCl4 at the 7th week after weaning for three weeks; the third group, Rostafuroxin treated with liver fibrosis (RLF), received Rostafuroxin at 1 mg/kg along the entire period (10 weeks) and received CCl4 at the 7th week after weaning for three weeks. At the end of the treatment (10th week), rats were weighed and anaesthetized with pentobarbital for blood sampling and organ removal. The blood was let clotted and serum separated after centrifugation and saved for measurement of serum albuminemia and transaminases (ALT and AST) on a Pentra 400 (ABX) Automatic Hematology Analyzer. Spleen and liver were removed and weighed. Samples of the liver median lobe were immediately frozen in liquid nitrogen and kept at −80° for further biochemical measurement of the 4-Hydroxiproline liver content, taken as an index of collagen deposition (Biochem. J. 1961; 80(1): 148-154). The rest of the liver was preserved in a 10% buffered formalin solution for the histological analysis.

[3] = test system: spontaneous hypertensive MHS rats; test: Prevention of restenosis after carotid surgical injury (endoartherectomy model), morphometry of the carotid lumen area
From the text: as §1, with “prevention” for “prevention and treatment”, “restenosis after endoartherectomy,” for “organ fibrosis,”
After this period rats were subjected to the vascular surgical injury according to the protocol listed below. After surgical injury, rats were maintained under treatment either with vehicle or Rostafuroxin for further 30 days and then sacrificed for carotid artery sampling. […] The final number of rats used for the histological carotid analysis was; MHS vehicle=7, MHS Rostafuroxin=9.
(§3) The carotid surgical injury model used on MHS and MNS rat is described in J. Cell. Physiol. 2001; 186:307-313.
(§4) Briefly, a plastic Scanlon clamp for coronary artery bypass grafting was placed for 10 seconds on the carotid artery in order to cause a crushing lesion to vessel. At the same point where the clamp was applied, a 0.5 mm longitudinal incision was performed on the full thickness of the carotid artery. […] Hemostasis was obtained with a single adventitial 8.0-gauge polypropylene stitch. Once bleeding stopped, the carotid artery was carefully examined and blood pulsation was checked distally to the incision.
Carotid arteries were taken 30 days after injury. […]
(§5) For each injured carotid, at least 60 serial cross-sections were observed under a light microscope at 20× magnification; image screening and photography were performed using Leica IM 1000 System (Leica, Wetzlar, Germany). The sections of injured carotids showing maximal remodelling and proliferative phenomena were identified and further analyzed.
(§6) Lumen and medial areas were measured using the Leica IM 1000 software (Leica, Heerbrugg, Switzerland). […] For each contralateral uninjured carotid, at least 10 sections were analyzed and the average media and lumen areas were calculated. […]

[4] = test system: MNS rats without arterial hypertension; test: Prevention of restenosis after carotid surgical injury, morphometry of the carotid lumen area; conditions: 100 μg/kg orally, carotid taken 30 days after injury
Description: as §3, §4
Carotid arteries were taken 30 days after injury. Rats were anaesthetized and carotids were dissected free from the surrounding tissues. […]
as §5, §6

[5] = test system: MHS rats with CCl4-induced liver fibrosis; test: CCl4-induced liver fibrosis: quantitative histomorphometric analysis of fibrotic area (Sirius Red, ImageJ)
From the text: as §1
Liver fibrosis was induced by CCl4 oral administration as described in J. Hepatol. 1999; 30: 621-631, with minor modifications: 0.375 ml/kg of CCl4 dissolved in olive oil was administered three times per week for three weeks by oral gavage to rats starting from the 7th week after weaning. Control rats received only the vehicle (olive oil). Rostafuroxin treatment started 7 weeks before the induction of liver fibrosis by CCl4 administration (pretreatment) and was continued during the CCl4 treatment for three weeks. Rostafuroxin was orally administered at 1 mg/kg/day, suspended in Methocel (0.5%). […]
A quantitative analysis of the degree of fibrosis, following the histological qualitative analysis, was performed by digital imaging conversion of the histological pictures by a previously described method (J. Gastroenterol. 2004, Oct. 1; 10(19)2894-2897).
Briefly, after staining with Sirius Red, liver collagen content was measured by histomorphometric method. […] Each picture was analyzed by computer system ImageJ version 1.39 for digital image analysis. […] The fibrotic area with positive staining were automatically selected, outlined and evaluated. Relative content of collagen was calculated as a percentage of positive staining pixels on the total number of pixels of the picture.

[6] = test system: MHS rats with CCl4-induced liver fibrosis; test: CCl4-induced liver fibrosis: serum albuminemia and transaminases (ALT and AST)
From the text: as §1, §2

[7] = test system: MHS rats with CCl4-induced liver fibrosis; test: CCl4-induced liver fibrosis: histopathology and qualitative fibrosis score on Syrius red stained slides; set-up: key to Liver fibrosis score, histological appearance (FIG. 8): 0: Absence of liver fibrosis, but normal staining pattern only; 1: Mild degree, corresponding to centrilobular/periportal fibrosis, with predominantly uncomplete septal expansion—mild focal interstitial fibrosis; 2: Moderate degree, corresponding to diffuse bridging fibrosis, with focal nodular appearance—multifocal interstitial fibrosis; 3: Severe degree, corresponding to confluent fibrosis, with diffuse nodular appearance—severe diffuse interstitial fibrosis
From the text: as §1, §2
For each case, the median and the left lobes of the liver were subjected to standard trimming and embedding procedures; slides were stained with Hematoxylin and Eosin (H&E) (Laboratory Methods in Histotechnology; Armed Forces Institute of Pathology Published by the American Registry of Pathology Washington, D.C. 1992). Special techniques were also applied in order to allow proper connective tissue detection (Masson's Trichrome stain—Laboratory Methods in Histotechnology; Armed Forces Institute of Pathology Published by the American Registry of Pathology Washington, D.C. 1992) as well as specific collagen detection and hepatic fibrosis evaluation (Syrius red staining method as described in The Journal of Histochemistry and Citochemistry 1985; vol 33, No. 8, pp. 737-743).
Liver fibrosis was qualitatively scored on Syrius red stained slides as follows:
0=Absence of liver fibrosis, but normal staining pattern only;
1=Mild degree, corresponding to centrilobular/periportal fibrosis, with predominantly uncomplete septal expansion—mild focal interstitial fibrosis;
2=Moderate degree, corresponding to diffuse bridging fibrosis, with focal nodular appearance—multifocal interstitial fibrosis;
3=Severe degree, corresponding to confluent fibrosis,
with diffuse nodular appearance—severe diffuse interstitial fibrosis. […]

[8] = RLF group, 1 mg/kg os for 10 weeks + CCl4, individual rats, 1 mg/kg
[9] = rats with CCl4-induced liver fibrosis, 1 mg/kg os
[10] = rats with CCl4-induced liver fibrosis, vs Ctr. LF, statistically significant

C[C@]12CC[C@H](O)C[C@H]1CC[C@@H]1[C@@H]2CC[C@]2(C)[C@@](O)(c3ccoc3)CC[C@]12O [Rostafuroxin, 17 beta-(3-Furyl)-5 beta-androstane-3beta, 14 beta, 17 alpha-triol]
Liver hydroxyproline, mean ([1]; RLF group, 1 mg/kg os for 10 weeks + CCl4, group mean (n=8), Ctr. LF mean 1596.45): 1184.9 μg/g prot | Liver hydroxyproline [1, 8]: 886.5 μg/g prot and 791.6 μg/g prot and 1217.4 μg/g prot and 811.0 μg/g prot and 799.8 μg/g prot and 2762.3 μg/g prot and 750.0 μg/g prot and 1460.7 μg/g prot | Reduction of liver content of hydroxyproline ([1]; rats with CCl4-induced liver fibrosis, vs Ctr. LF): 25.8% | Spleen/bw, mean ([2]; RLF group, 1 mg/kg os for 10 weeks + CCl4, group mean (n=8), Ctr. LF mean 0.355): 0.284% | Spleen/bw [2, 8]: 0.251% and 0.316% and 0.261% and 0.262% and 0.247% and 0.302% and 0.348% and 0.288% | Weight of the liver [2, 9]: not modified | Reduction of spleen weight [2, 10]: 20% | Change in arterial restenosis vs vehicle ([3]; MHS rats with arterial hypertension, vs vehicle, statistically significant): −45% | Carotid lumen area, Injured/Uninjured carotid ratio, mean ([3]; MHS rats, 100 μg/kg orally, carotid taken 30 days after injury, group mean (n=9), vehicle mean 0.379): 0.680 | Carotid lumen area, Injured/Uninjured carotid ratio ([3]; MHS rats, 100 μg/kg orally, carotid taken 30 days after injury, individual animals): 0.86 and 0.83 and 0.81 and 0.66 and 0.54 and 0.36 and 0.25 and 0.90 and 0.89 | Carotid lumen area, Injured/Uninjured carotid ratio, mean ([4]; group mean (n=10), vehicle mean 0.540): 0.765 | Carotid lumen area, Injured/Uninjured carotid ratio ([4]; individual animals): 0.93 and 0.83 and 0.80 and 0.76 and 0.75 and 0.68 and 0.59 and 0.36 and 1.00 and 0.95 | % FIBROTIC AREA, mean ([5]; RLF group, 1 mg/kg os for 10 weeks + CCl4, group mean (n=8), Ctr. LF mean 10.48): 5.50% | % FIBROTIC AREA [5, 8]: 4.64% and 5.50% and 1.44% and 6.63% and 6.89% and 5.08% and 11.80% and 2.01% | Reduction of liver fibrotic area [5, 10]: 47.5% | Albumin, mean ([6]; RLF group, 1 mg/kg os for 10 weeks + CCl4, group mean (n=8), Ctr. LF mean 3.02): 3.53 g/dL | Albumin [6, 8]: 3.65 g/dL and 3.36 g/dL and 4.15 g/dL and 2.95 g/dL and 3.19 g/dL and 3.07 g/dL and 3.82 g/dL and 4.04 g/dL | Transaminases (ALT and AST) [6, 9]: not modified | Increase of plasma levels of albumin [6, 10]: 16.8% | Extension of liver tissue damage (histopathology) ([7]; CCl4-treated rats, 1 mg/kg os, compared with Ctr. LF group, 1 mg/kg): minor extension of tissue damage; also recorded: less extended tissue damage | Liver fibrosis Absence (score 0), % of rats ([7]; RLF group, 1 mg/kg OS + CCl4): 0% | Liver fibrosis Absence (score 0), No. of rats ([7]; RLF group, 1 mg/kg OS + CCl4): 0/8 | Liver fibrosis Mild (score 1), % of rats ([7]; RLF group, 1 mg/kg OS + CCl4): 75% | Liver fibrosis Mild (score 1), No. of rats ([7]; RLF group, 1 mg/kg OS + CCl4): 6/8 | Liver fibrosis Moderate (score 2), % of rats ([7]; RLF group, 1 mg/kg OS + CCl4): 25% | Liver fibrosis Moderate (score 2), No. of rats ([7]; RLF group, 1 mg/kg OS + CCl4): 2/8 | Liver fibrosis Severe (score 3), % of rats ([7]; RLF group, 1 mg/kg OS + CCl4): 0% | Liver fibrosis Severe (score 3), No. of rats ([7]; RLF group, 1 mg/kg OS + CCl4, 1 mg/kg): no rats and 0/8 | Liver fibrosis score, histological appearance (FIG. 8) ([7]; liver from two CCl4 rats treated at 1 mg/kg os (RLF group)): 1
